SMILES strings stand for the structures. Read-outs that look alike come from different tables or passages of the source. Some results are limits rather than exact numbers.

For 22 molecules, inhibition and EC50 results are on record in patent US20240124444A1 (Celgene Corporation, priority 2020, published 2024).

The assay relates to C. parvum strain UGA1. In words: C. parvum growth inhibition assay (Nluc luminescence in HCT-8 cells). The assay is classed as cell-based, Cryptosporidium parvum. The settings on record: Cryptosporidium parvum; for inhibition at 1 µM / inhibition at 10 µM: HCT-8; for inhibition at 1 µM: read-out: % inh @ 1 uM C. parvum; for inhibition at 10 µM: read-out: % inh @ 10 uM C. parvum; for EC50: HCT-8, 48 h, C. parvum growth inhibition in HCT-8 cells, 48 hours, 6 concentrations 10-0.04 μM. On the procedure:
C. parvum GROWTH INHIBITION ASSAYS
C. parvum growth inhibition was performed as described in Hulverson M A, Vinayak S, Choi R, Schaefer D A, Castellanos-Gonzalez A, Vidadala R S R, Brooks C F, Herbert G T, Betzer D P, Whitman G R, Sparks H N, Arnold S L M, Rivas K L, Barrett L K, White A C Jr, Maly D J, Riggs M W, Striepen B, Van Voorhis W C, Ojo K K. Bumped-Kinase Inhibitors for Cryptosporidiosis Therapy. J Infect Dis. 2017 Apr. 15; 215(8):1275-1284.
C. parvum strain UGA1 […] (ATCC, Manassas, VA) were prepared as described below. HCT-8 cells were inoculated onto 96-well plates were grown for 48 hours to 90%-100% confluence. C. parvum oocysts were then incubated for 10 minutes in 10% bleach at room temperature and washed with Dulbecco's phosphate-buffered saline. One thousand oocysts per well were applied to plates with Roswell Park Memorial Institute 1640 (RPMI) medium supplemented with 10% horse serum and 1% penicillin/streptomycin. Compounds of Formula (I), Formula (II), and Formula (III) were added to the plates at different concentrations and the plates were incubated for 48 hours. Following the incubation, the monolayers were lysed for 1 hour before a luciferase reagent was added, and relative luminescence units were determined.
For certain compounds of Formula I, Formula II, and Formula III, EC50 values were calculated using curves calculated from Prism after analysis of C. parvum growth inhibition at 6 different concentrations: 10, 3.33, 1.11, 0.37, 0.12, and 0.04 μM. […] For certain compounds of Formula I, Formula II, and Formula III, single point inhibition values of 0-33% (activity level D), between 33% and 66% (activity level E), and between 67% and 100% (activity level F) are also shown in Table 1 below.

Where [1] appears, read: single point inhibition at 1 uM.
Where [2] appears, read: single point inhibition at 10 uM.
The mark [3] stands for this setting: single point inhibition @ 10 uM.

In the case of `Cc1nccc(-c2cc3cnc(NC(=O)c4cnn(C)c4)cc3[nH]2)c1F` [Example 283, N-(2-(3-fluoro-2-methylpyridin-4-yl)-1H-pyrrolo[3,2-c]pyridin-6-yl)-1-methyl-1H-pyrazole-4-carboxamide], the inhibition at 1 µM under setting [1] lay within 0 to 33%. For the same molecule, the inhibition at 10 µM under setting [2] is 0 to 33%.
By EC50 is commonly meant the concentration at which the effect is half-maximal. Low readings indicate a more potent agent, high ones a less potent agent. `COC(=O)Nc1cc2[nH]c(C(F)(F)F)cc2cn1` [Example 107, methyl 2-(trifluoromethyl)-1H-pyrrolo[3,2-c]pyridin-6-ylcarbamate] showed a half-maximal effective concentration (EC50) of more than 1 µM.
The molecule `Cc1cc(-c2[nH]c3cc(NC4CCOC4)ncc3c2C)ccn1` (stereo in doubt) [Example 367, (S)-3-methyl-2-(2-methylpyridin-4-yl)-N-(tetrahydrofuran-3-yl)-1H-pyrrolo[3,2-c]pyridin-6-amine] registered an EC50 of more than 1 µM.
As to `Cc1cc(-c2cc3cnc(N)cc3[nH]2)ccn1` [Example 81, 2-(2-methylpyridin-4-yl)-1H-pyrrolo[3,2-c]pyridin-6-amine], the EC50 was more than 1 µM. For the same molecule, the inhibition at 1 µM (single point inhibition @ 1 uM) was in the range of 0 to 33%. Besides, under setting [3], the inhibition at 10 µM was in the range of 33 to 66%.
Take `Cn1cc(C(=O)Nc2cc3c(cn2)cc(-c2ccnc(NCC4CC4)n2)n3C)cn1` [Example 159, N-(2-(2-(cyclopropylmethylamino)pyrimidin-4-yl)-1-methyl-1H-pyrrolo[3,2-c]pyridin-6-yl)-1-methyl-1H-pyrazole-4-carboxamide]: the inhibition at 1 µM (single point inhibition @ 1 uM) was 0 to 33%. For the same molecule, the inhibition at 10 µM under setting [3] fell in the range of 67 to 100%.
`O=C(Nc1cc2[nH]c(C(F)(F)F)cc2cn1)C1CCCC1` [Example 111, N-(2-(trifluoromethyl)-1H-pyrrolo[3,2-c]pyridin-6-yl)cyclopentanecarboxamide] yielded an EC50 of more than 1 µM.
On to `Cc1cc(-c2cc3cnc(NC(=O)c4cccc5c4cnn5C)cc3[nH]2)ccn1` [Example 288, 1-methyl-N-(2-(2-methylpyridin-4-yl)-1H-pyrrolo[3,2-c]pyridin-6-yl)-1H-indazole-4-carboxamide], for which the inhibition at 1 µM under setting [1] was 0 to 33%. For the same molecule, under setting [2], the inhibition at 10 µM was in the range of 0 to 33%.
Turning to `Cn1cc(C(=O)Nc2cc3[nH]c(-c4ccc(C(F)(F)F)nc4)cc3cn2)cn1` [Example 306, 1-methyl-N-(2-(6-(trifluoromethyl)pyridin-3-yl)-1H-pyrrolo[3,2-c]pyridin-6-yl)-1H-pyrazole-4-carboxamide], the inhibition at 1 µM under setting [1] was 0 to 33%. For the same molecule, the inhibition at 10 µM under setting [2] was 0 to 33%.
On to `Cn1c(-c2ccnc(NCC(F)(F)F)n2)cc2cnc(NC3CCCOC3)cc21` (stereo in doubt) [Example 386, (R)-1-methyl-N-(tetrahydro-2H-pyran-3-yl)-2-(2-(2,2,2-trifluoroethyl)amino)pyrimidin-4-yl)-1H-pyrrolo[3,2-c]pyridin-6-amine], for which the concentration for a half-maximal effect (EC50) was more than 1 µM.
Turning to `O=C(Nc1cc2[nH]c(-c3ccncc3)cc2cn1)C1CCOCC1` [Example 68, N-(2-(pyridin-4-yl)-1H-pyrrolo[3,2-c]pyridin-6-yl)tetrahydro-2H-pyran-4-carboxamide], the EC50 is more than 1 µM. Also, the inhibition at 1 µM (single point inhibition @ 1 uM) fell in the range of 0 to 33%. Under setting [3], the inhibition at 10 µM lay within 67 to 100%.
For the molecule `COc1nccc(-c2cc3cnc(NC(=O)c4cnn([C@H]5CC[C@H](O)CC5)c4)cc3[nH]2)n1` [Example 219, 1-((1r,4r)-4-hydroxycyclohexyl)-N-(2-(2-methoxypyrimidin-4-yl)-1H-pyrrolo[3,2-c]pyridin-6-yl)-1H-pyrazole-4-carboxamide], the inhibition at 1 µM under setting [1] was in the range of 0 to 33%. The inhibition at 10 µM under setting [2] was 33 to 66%.
On to `CN(C(=O)c1cnn(C)c1)c1cc2[nH]c(-c3ccnc(NCC(F)(F)F)n3)cc2cn1` [Example 257, N,1-dimethyl-N-(2-(2-(2,2,2-trifluoroethylamino)pyrimidin-4-yl)-1H-pyrrolo[3,2-c]pyridin-6-yl)-1H-pyrazole-4-carboxamide], for which the inhibition at 1 µM under setting [1] lay in the range of 0 to 33%. For the same molecule, the inhibition at 10 µM under setting [2] was in the range of 0 to 33%.
Regarding `Cc1cc(-c2cc3cnc(NC(=O)C4CCCO4)cc3[nH]2)ccn1` (stereo in doubt) [Example 182, (S)-N-(2-(2-methylpyridin-4-yl)-1H-pyrrolo[3,2-c]pyridin-6-yl)tetrahydrofuran-2-carboxamide], for the setting “single point inhibition @ 1 uM”, the inhibition at 1 µM is 0 to 33%. In addition, under setting [3], the inhibition at 10 µM lay in the range of 67 to 100%.
As to `CCOc1nccc(-c2cc3cnc(NC(=O)c4ccc(OC)c(OC)c4)cc3[nH]2)n1` [Example 321, N-(2-(2-ethoxypyrimidin-4-yl)-1H-pyrrolo[3,2-c]pyridin-6-yl)-3,4-dimethoxybenzamide], the inhibition at 1 µM under setting [1] lay in the range of 0 to 33%. Moreover, under setting [2], the inhibition at 10 µM is 0 to 33%.
With `COc1nccc(-c2cc3cnc(NC(=O)c4cnn(C(C)C)c4)cc3[nH]2)n1` [Example 177, 1-isopropyl-N-(2-(2-methoxypyrimidin-4-yl)-1H-pyrrolo[3,2-c]pyridin-6-yl)-1H-pyrazole-4-carboxmaide], the inhibition at 1 µM (single point inhibition @ 1 uM) fell in the range of 0 to 33%. The inhibition at 10 µM under setting [3] is 67 to 100%.
In the case of `O=C(Nc1cc2[nH]c(-c3ccnc(OCC(F)F)n3)cc2cn1)c1cnn([C@H]2CC[C@@H](O)CC2)c1` [Example 323, N-(2-(2-(2,2-difluoroethoxy)pyrimidin-4-yl)-1H-pyrrolo[3,2-c]pyridin-6-yl)-1-((1s,4s)-4-hydroxycyclohexyl)-1H-pyrazole-4-carboxamide], the inhibition at 1 µM under setting [1] lay within 0 to 33%. In addition, the inhibition at 10 µM under setting [2] was in the range of 0 to 33%.
Consider `Cn1c(-c2cc(C(F)(F)F)ncn2)cc2cnc(NC(=O)C3CC3)cc21` [Example 130, N-(1-methyl-2-(6-(trifluoromethyl)pyrimidin-4-yl)-1H-pyrrolo[3,2-c]pyridin-6-yl)cyclopropanecarboxamide], for which the concentration giving a half-maximal response (EC50) is more than 1 µM.
`Cc1cc(-c2cc3cnc(NC(=O)C4CC4)cc3n2C)ccn1` [Example 83, N-(1-methyl-2-(2-methylpyridin-4-yl)-1H-pyrrolo[3,2-c]pyridin-6-yl)cyclopropanecarboxamide]: the concentration giving a half-maximal response (EC50) is more than 1 µM. Besides, the inhibition at 1 µM (single point inhibition @ 1 uM) was in the range of 0 to 33%. Besides, under setting [3], the inhibition at 10 µM lay in the range of 0 to 33%.
As to `Cn1cc(C(=O)Nc2cc3[nH]c(-c4ccnc(OCCC(F)(F)F)n4)cc3cn2)cn1` [Example 213, 1-methyl-N-(2-(2-(3,3,3-trifluoropropoxy)pyrimidin-4-yl)-1H-pyrrolo[3,2-c]pyridin-6-yl)-1H-pyrazole-4-carboxamide], the inhibition at 1 µM under setting [1] was 0 to 33%. The inhibition at 10 µM under setting [2] was 67 to 100%.
Take `CCn1cc(C(=O)Nc2cc3[nH]c(-c4ccnc(OCC(F)F)n4)cc3cn2)c(C)n1` [Example 318]: under setting [1], the inhibition at 1 µM lay in the range of 0 to 33%. Further, the inhibition at 10 µM under setting [2] lay within 0 to 33%.
As to `COc1cc(Nc2cc3[nH]c(C#N)cc3cn2)cc(C2CCOCC2)c1` [Example 148, 6-(3-methoxy-5-(tetrahydro-2H-pyran-4-yl)phenylamino)-1H-pyrrolo[3,2-c]pyridine-2-carbonitrile], for the setting “single point inhibition @ 1 uM”, the inhibition at 1 µM lay within 0 to 33%. Further, under setting [3], the inhibition at 10 µM lay in the range of 67 to 100%.
On to `Cc1cn(C)nc1C(=O)Nc1cc2[nH]c(-c3ccncc3)cc2cn1` [Example 281, 1,4-dimethyl-N-(2-(pyridin-4-yl)-1H-pyrrolo[3,2-c]pyridin-6-yl)-1H-pyrazole-3-carboxamide], for which the inhibition at 1 µM under setting [1] is 0 to 33%. Further, the inhibition at 10 µM under setting [2] was 0 to 33%.
